Like-named read-outs stand apart in the source and are kept apart here.
Experiments:
pSTAT5 (Y694) = test: IL-2-induced STAT5 phosphorylation in T-cells; assay type: cell-based, human; details: vs DMSO or unstimulated controls
Experimental: As indicated, T cells were serum-starved in RPMI treated with DMSO diluent control, alisertib, TG101348, a combination of both inhibitors, AJI-214, or AJI-100 for 4 hours. IL-6-induced pSTAT3 or IL-2-induced pSTAT5 (Y694) was measured by flow cytometry.

RORgammaT = RORgammaT expression by RT-PCR; assay type: cell-based, human; details: TH17-polarizing medium, 5 days, vs DMSO
[1] = tested on: T-cells allostimulated by dendritic cells (DC); test: Allogeneic mixed leukocyte reaction (alloMLR), T-cell proliferation; assay type: cell-based, human
Experimental: Bulk donor T-cells were allostimulated with allogeneic DCs (DC:T-cell ratio of 1:30) as previously described (OneBlood, Tampa, Fla.)(15, 16, 20). […] As indicated, alloMLRs consisting of Treg depleted, naïve CD4^+ T-cells (Miltenyi Biotec Inc, San Diego, Calif.) were treated with a combination of ARL67156 (CD39 inhibitor, 125 μM, Sigma), AJI, or DMSO on day 0 to study the role of CD39 and ATP in this system. T-cell proliferation was measured on day 5 by a colorimetric assay (CellTiter 96 Aqueous One Solution Cell Proliferation Assay [MTS]; or CellTiter Blue, Promega, Madison, Wis.). Absorbance/optical density (OD) was analyzed at 490 nm or 590 nm, respectively. Proliferation (%)=(OD treated alloMLR−OD T-cells alone)/(OD DMSO alloMLR−OD T-cells alone)×100.

iTreg = iTreg differentiation and potency; assay type: cell-based, human; details: for iTreg:allo Tconv ratio: 5-day MLRs; for iTreg:allo Tconv ratio / iTreg differentiation / absolute numbers of iTregs: vs DMSO; for iTreg differentiation / absolute numbers of iTregs: Treg-depleted naïve CD4+ T-cells, allogeneic DCs, 5 days; for suppressive capacity of iTregs generated in presence of inhibitor: standard suppression assay, no additional inhibitor added
Experimental: On day 5, iTregs were isolated and washed to minimize drug carry-over as reported. The T cells were harvested and surface-stained on day 5 for CD3, CD4, CD25, and CD127, followed by fixation and permeabilization (eBioscience) and Foxp3 staining. The absolute number of iTreg was calculated by flow cytometry using CountBright beads (Life Technologies). The purified iTregs were titrated against alloMLRs consisting of responder CD4+CD25− T cells (5×10^4) from the iTregs donor and fresh allogeneic DCs (1.6×10^3) to determine suppressive potency. T cell proliferation was determined by pulsing cells with [^3H]thymidine ([…]). Surface expression of CD39 and LAG3 was evaluated on the iTregs. iTregs production of CTLA4 was assessed by intracellular staining after a 5-hour treatment of PMA/ionomycin, with GolgiStop added during the last 4 hours of incubation. iTregs synthesis of IL-10 and TGF-β (Quansys Biosciences) was quantified from supernatants using multiplex cytokine assays after PMA/ionomycin stimulation.

STAT3 (target of JAK2) = test: STAT3 phosphorylation in T-cells (flow cytometry); assay type: cell-based, human; details: in vitro, DC- or IL-6-stimulated, vs DMSO
Experimental: IL-6-induced pSTAT3 or IL-2-induced pSTAT5 (Y694) was measured by flow cytometry.

CD39 on iTreg = test: ATP hydrolysis assay; assay type: cell-based, human; details: ARL67156 125 μM
Experimental: iTregs generated in the presence of AJI-241 (750 nM) or DMSO were plated in V-bottom 96 well plates in serum free media at a concentration of 75,000 cells per 100 μL. ARL67156 (125 μM) was added or not as indicated. A fixed dose of ATP (50 μM) was added to the cells and incubated at 37° C. for 45 minutes. ATP consumption was measured by a luminescence assay per the manufacturer's instructions (Promega, CellTiter-Glo Luminescent Cell Viability Assay) and read by a spectrofluorimeter. Percent consumption was calculated as (luminescence of test supernatant/luminescence of 50 μM ATP cell-free control supernatant)×100.

Bioavailability = details: in vivo
[2] = tested on: H3 Ser10 (target of Aurora); test: H3 Ser10 phosphorylation in DC-allostimulated T-cells (flow cytometry); assay type: cell-based, human; details: 5-day allogeneic DC stimulation; AJI 750 nM, alisertib 1.75 μM, TG101348 350 nM
Experimental: After 5 days, T cells were then harvested and directly fixed (Cytofix, BD Biosciences) for 10 min at 37° C. After washing with phosphate-buffered saline, the T cells were permeabilized with icecold methanol (90%, v/v) for at least 20 min at -20° C. The cells were stained for expression of CD3 and pH[…].

[3] = tested on: xenogeneic GVHD (NSG mice transplanted with human PBMCs); test: Xenogeneic GVHD model; assay type: in vivo; details: alisertib 30 mg/kg daily, TG101348 45 mg/kg twice a day, oral gavage day 0 to +14
Text: After transplantation and treatment with either AJI-100 or vehicle control, human T cells were isolated from recipient mouse spleens at day +14, stained for pH3Ser^10 or pSTAT3 (+IL-6 stimulation), and analyzed as described.
NOD scid gamma (NSG) mice (male or female, 6-24 weeks old) were purchased from Jackson Laboratory (Bar Harbor, Me., USA) and raised per an IACUC-approved protocol in adherence to the NIH Guide for the Care and Use of Laboratory Animals. Mice received either (i) alisertib (30 mg/kg daily), TG101348 (45 mg/kg twice a day), a combination of alisertib and TG101348, or vehicle (methylcellulose) by oral gavage or (ii) AJI-100 (50 mg/kg daily) or vehicle (50% polyethylene glycol, 15% 2-hydroxypropyl-b-cyclodextrin, and 10% DMSO in sterile saline) ip from day 0 to day +14.
Mice were monitored for GVHD clinical scores (K. R. Cooke et al., An experimental model of idiopathic pneumonia syndrome after bone marrow transplantation: I. The roles of minor H antigens and endotoxin. Blood 88, 3230 (1996)), weight, and premoribund status. As indicated, mice were euthanized on day +14 to study recipient spleen Tconv, Tregs, TH1, TH17, B cells, and T-cell signal transduction. Human CD4^+ Treg (CD25+, CD127^−, Foxp3^+), Tconv(CD25^+, CD127^+), TH1, TH17, and CD19^+ B cells residing in recipient spleens were quantified by flow cytometry. T-cell pH3 ser10 and PSTAT3 were evaluated by flow cytometry. IL-17 ELISPOTs were performed using isolated human T cells from recipient mouse spleen as described above. Tissue samples were prepared, stained (Ventana Medical Systems, Tucson, Ariz.), and imaged (Vista, Calif., USA) to identify human T-cells as previously described. All vertebrate animal work was IACUC-approved.

GVHD = details: mouse, in vivo; cited from earlier work
TH17 = test: IL-17 ELISPOT of DC-stimulated CD4+ T cells; assay type: cell-based, human; details: DC-stimulated purified CD4+ T cells
Experimental: Naïve CD4^+ T cells were purified and allostimulated (DC/T cell ratio of 1:30) as reported (B. C. Betts et al., CD4^+ T cell STAT3 phosphorylation precedes acute GVHD, and subsequent TH17 tissue invasion correlates with GVHD severity and therapeutic response. J. Leukocyte Biol. (2015)). Alisertib ([…]), TG101348 (350 nM), both alisertib and TG101348, AJI-214 (750 nM), AJI-100 (750 nM), or DMSO control was added once on day 0. Medium was supplemented with IL-6 (1×10^5 IU/mL), TGF-β (4 ng/mL; R&D Systems), and anti-IFN-γ monoclonal antibody ([…]; eBioscience) to polarize TH17. After 5 days, the T cells were harvested, washed, and then plated at 35,000 cells per well in an IL-17 ELISPOT plate (R&DSystems). The CD4^+ T cells were stimulated with PMA/ionomycin, and the ELISPOT assay was performed according to the manufacturer's instructions.

## Cc1cnc(Nc2ccc(OCCN3CCCC3)cc2)nc1Nc1cccc(S(=O)(=O)NC(C)(C)C)c1 [TG101348]
pSTAT5 (Y694)
  IL-2-induced STAT5 activation/phosphorylation in T-cells: remained intact
RORgammaT
  RORgammaT expression in alloresponder CD4+ T-cells: significantly decreases
[1]; Homo sapiens, TG101348 and alisertib added together at fixed ratio 1:5, read-out: IC50 of the combination, TG101348 concentration
  IC50: 0.35 µM
[1]; alloMLR
  concentrations reducing alloreactive T-cell proliferation: ≥ 350 nM
iTreg
  iTreg:allo Tconv ratio: incrementally larger Treg:allo Tconv ratios
  iTreg differentiation / absolute numbers of iTregs: less absolute numbers of iTregs and allo Tconv
  suppressive capacity of iTregs generated in presence of inhibitor: improved iTreg function compared with DMSO
STAT3 (target of JAK2)
  STAT3 (pSTAT3 Y705) phosphorylation in T-cells: only inhibited pSTAT3

## CCN(CC)c1ncnc2c1ncn2[C@@H]1O[C@H](COP(=O)(O)OP(=O)(O)C(Br)(Br)P(=O)(O)O)[C@@H](O)[C@H]1O [ARL67156]
CD39 on iTreg
  hydrolysis of ATP by AJI-treated iTregs on CD39 blockade: significantly impaired
[1]; natural Treg-depleted CD4+ alloMLR, ARL67156 added
  T-cell inhibition by bisanilinopyrimidine (I)/AJI-214 on CD39 blockade: significantly weakened

## NC(=O)c1ccc(Nc2ncc(F)c(Nc3ccccc3Cl)n2)cc1 [bisanilinopyrimidine (I)]
Bioavailability
  bioavailability: limited bioavailability

## COc1cc(Nc2ncc3c(n2)-c2ccc(Cl)cc2C(c2c(F)cccc2OC)=NC3)ccc1C(=O)O [alisertib]
[2]
  phosphorylation of histone 3 serine 10 (pH3 Ser10) in T-cells: only inhibited pH3Ser^10
[3]
  median survival: 41 days
pSTAT5 (Y694)
  IL-2-induced STAT5 activation/phosphorylation in T-cells: remained intact
RORgammaT
  RORgammaT expression in alloresponder CD4+ T-cells: no effect
GVHD
  onset of GVHD in mice: significantly delayed the onset of GVHD
TH17
  TH17 (IL-17 ELISPOT): no effect
[1]; Homo sapiens, T-cell, alisertib 625 nM, read-out: inhibition of proliferative response of T-cells in alloMLRs
  inhibition at 0.625 µM: 32.5%
[1]; Homo sapiens, T-cell, alisertib alone (Study 2 text), read-out: median inhibitory concentration (IC50), T cells in alloMLRs
  IC50: 10 µM
[1]; Homo sapiens, T-cell, alisertib alone, read-out: IC50, proliferative response of T-cells in alloMLRs
  IC50: 10 µM
[1]; Homo sapiens, TG101348 and alisertib added together at fixed ratio 1:5, read-out: IC50 of the combination, alisertib concentration
  IC50: 1.75 µM
iTreg
  iTreg:allo Tconv ratio: incrementally larger Treg:allo Tconv ratios
  iTreg differentiation / absolute numbers of iTregs: less absolute numbers of iTregs and allo Tconv
  suppressive capacity of iTregs generated in presence of inhibitor: superior suppressive capacity

Reference: patent US11203576B2, “Aurora kinase and Janus kinase inhibitors for prevention of graft versus host disease” (H. LEE MOFFITT CANCER CENTER AND RESEARCH INSTITUTE, INC., priority 2016, dated 2021)
